Source: ChEMBL document CHEMBL4610070, “Talauxins: Hybrid Phenalenone Dimers from Talaromyces stipitatus” (J Nat Prod, 2020)
pIC50: −log10 of the molar value. ≈ marks a conversion by molar mass, not a printed value. Calls of active or inactive are those of the source. No cut-off for these calls is given here.

Key:
Bacillus subtilis [1] = test: Antibacterial activity against Bacillus subtilis ATCC 6633 assessed as reduction in microbial growth up to 100 ug/ml after incubated for 48 hrs by resazurin dye based assay; format: functional, organism-based
Escherichia coli [2] = test: Antibacterial activity against Escherichia coli ATCC 25922 assessed as reduction in microbial growth up to 100 ug/ml after incubated for 48 hrs by resazurin dye based assay; format: functional, organism-based
Saccharomyces cerevisiae [3] = test: Antifungal activity against Saccharomyces cerevisiae ATCC 9763 assessed as reduction in microbial growth up to 100 ug/ml after incubated for 48 hrs by bromocresol green dye based assay; format: functional, organism-based
Candida albicans [4] = test: Antifungal activity against Candida albicans ATCC 10231 assessed as reduction in microbial growth up to 100 ug/ml after incubated for 48 hrs by bromocresol green dye based assay; format: functional, organism-based
Mus musculus = species on record: Mus musculus; test: Antiproliferative activity against mouse NS1 cells assessed as reduction in cell viability up to 100 ug/ml after 48 hrs by resazurin dye based assay; format: functional
Bacillus subtilis [5] = test: Antibacterial activity against Bacillus subtilis ATCC 6633 assessed as reduction in microbial growth after incubated for 48 hrs by resazurin dye based assay; format: functional, organism-based; details: ATCC 6633, 48 h
Escherichia coli [6] = test: Antibacterial activity against Escherichia coli ATCC 25922 assessed as reduction in microbial growth after incubated for 48 hrs by resazurin dye based assay; format: functional, organism-based
Saccharomyces cerevisiae [7] = test: Antifungal activity against Saccharomyces cerevisiae ATCC 9763 assessed as reduction in microbial growth after incubated for 48 hrs by bromocresol green dye based assay; format: functional, organism-based; details: ATCC 9763, 48 h
Candida albicans [8] = test: Antifungal activity against Candida albicans ATCC 10231 assessed as reduction in microbial growth after incubated for 48 hrs by bromocresol green dye based assay; format: functional, organism-based
[9] = Antiproliferative activity against mouse NS1 cells assessed as reduction in cell viability after 48 hrs by resazurin dye based assay; format: functional; details: for MIC: 48 h; for pIC50: NS1, 48 h

## CO[C@@]12c3c(C)cc(O)c4c(=O)n([C@H](C(=O)O)C(C)C)cc(c34)C(=O)[C@@H]1[C@]13COC(=O)c4c(O)cc(C)c(c41)C(=O)[C@H]2[C@@H]3OC(C)=O
Bacillus subtilis [1]
  Activity: inactive
Escherichia coli [2]
  Activity: inactive
Saccharomyces cerevisiae [3]
  Activity: inactive
Candida albicans [4]
  Activity: inactive
Mus musculus
  Activity: inactive

## CO[C@@]12c3c(C)cc(O)c4c(=O)occ(c34)C(=O)[C@@H]1[C@]13COC(=O)c4c(O)cc(C)c(c41)C(=O)[C@H]2[C@@H]3OC(C)=O
Bacillus subtilis [5]
  pIC50: < 3.70
Escherichia coli [6]
  IC50: Not Active
Saccharomyces cerevisiae [7]
  pIC50: < 3.70
Candida albicans [8]
  IC50: Not Active
[9]
  MIC: 100 µg/mL (≈ 183 µM)
  pIC50: 3.85

## O=c1[nH]cc(F)c(=O)[nH]1 [FLUOROURACIL]
[9]
  pIC50: 5.34

## Cc1cc(O)c2c3c(c(O)cc(O)c13)C(=O)C(O)=C2O
Bacillus subtilis [5]
  pIC50: 3.58
  MIC: 100 µg/mL
Escherichia coli [6]
  IC50: Not Active
Saccharomyces cerevisiae [7]
  pIC50: < 3.40
Candida albicans [8]
  IC50: Not Active
[9]
  MIC: 25 µg/mL (≈ 91.2 µM)
  pIC50: 4.15

## CO[C@@]12c3c(C)cc(O)c4c(=O)n([C@@H](CCC(=O)O)C(=O)O)cc(c34)C(=O)[C@@H]1[C@]13COC(=O)c4c(O)cc(C)c(c41)C(=O)[C@H]2[C@@H]3OC(C)=O
Bacillus subtilis [1]
  Activity: inactive
Escherichia coli [2]
  Activity: inactive
Saccharomyces cerevisiae [3]
  Activity: inactive
Candida albicans [4]
  Activity: inactive
Mus musculus
  Activity: inactive

## CC1(C)S[C@@H]2[C@H](NC(=O)[C@H](N)c3ccccc3)C(=O)N2[C@H]1C(=O)O [AMPICILLIN]
Bacillus subtilis [5]
  pIC50: 6.05
Escherichia coli [6]
  IC50: Not Active

## Clc1ccccc1C(c1ccccc1)(c1ccccc1)n1ccnc1 [CLOTRIMAZOLE]
Saccharomyces cerevisiae [7]
  pIC50: 6.40
Candida albicans [8]
  IC50: Not Active

## CC[C@@H](C)[C@H](C(=O)O)n1cc2c3c(c(C)cc(O)c3c1=O)[C@]1(OC)[C@H](C2=O)[C@]23COC(=O)c4c(O)cc(C)c(c42)C(=O)[C@H]1[C@@H]3OC(C)=O
Bacillus subtilis [1]
  Activity: inactive
Escherichia coli [2]
  Activity: inactive
Saccharomyces cerevisiae [3]
  Activity: inactive
Candida albicans [4]
  Activity: inactive
Mus musculus
  Activity: inactive

## Cc1cc(O)c2c3c1C(=O)[C@@H]1C4=C(C(=O)c5cn([C@H](C(=O)O)C(C)C)c(=O)c6c(O)cc(C)c4c56)[C@@]3(COC2=O)[C@H]1O
Bacillus subtilis [1]
  Activity: inactive
Escherichia coli [2]
  Activity: inactive
Saccharomyces cerevisiae [3]
  Activity: inactive
Candida albicans [4]
  Activity: inactive
Mus musculus
  Activity: inactive

## CO[C@@]12c3c(C)cc(O)c4c(=O)n([C@@H](CCC(N)=O)C(=O)O)cc(c34)C(=O)[C@@H]1[C@]13COC(=O)c4c(O)cc(C)c(c41)C(=O)[C@H]2[C@@H]3OC(C)=O
Bacillus subtilis [1]
  Activity: inactive
Escherichia coli [2]
  Activity: inactive
Saccharomyces cerevisiae [3]
  Activity: inactive
Candida albicans [4]
  Activity: inactive
Mus musculus
  Activity: inactive

## CO[C@@]12c3c(C)cc(O)c4c(=O)n([C@@H](CC(C)C)C(=O)O)cc(c34)C(=O)[C@@H]1[C@]13COC(=O)c4c(O)cc(C)c(c41)C(=O)[C@H]2[C@@H]3OC(C)=O
Bacillus subtilis [1]
  Activity: inactive
Escherichia coli [2]
  Activity: inactive
Saccharomyces cerevisiae [3]
  Activity: inactive
Candida albicans [4]
  Activity: inactive
Mus musculus
  Activity: inactive

## CC[C@H](C)[C@@H](C(=O)O)n1cc2c3c(c(C)cc(O)c3c1=O)[C@]1(OC)[C@H](C2=O)[C@]23COC(=O)c4c(O)cc(C)c(c42)C(=O)[C@H]1[C@@H]3OC(C)=O
Bacillus subtilis [1]
  Activity: inactive
Escherichia coli [2]
  Activity: inactive
Saccharomyces cerevisiae [3]
  Activity: inactive
Candida albicans [4]
  Activity: inactive
Mus musculus
  Activity: inactive

## CC(=O)CC1(O)C(=O)c2c(O)cc(C)c3c(O)cc(O)c(c23)C1=O (stereo not drawn)
Bacillus subtilis [1]
  Activity: inactive
Escherichia coli [2]
  Activity: inactive
Saccharomyces cerevisiae [3]
  Activity: inactive
Candida albicans [4]
  Activity: inactive
Mus musculus
  Activity: inactive

## CO[C@@]12c3c(C)cc(O)c4c(=O)n([C@H](CC(C)C)C(=O)O)cc(c34)C(=O)[C@@H]1[C@]13COC(=O)c4c(O)cc(C)c(c41)C(=O)[C@H]2[C@@H]3OC(C)=O
Bacillus subtilis [1]
  Activity: inactive
Escherichia coli [2]
  Activity: inactive
Saccharomyces cerevisiae [3]
  Activity: inactive
Candida albicans [4]
  Activity: inactive
Mus musculus
  Activity: inactive
